Several values for one entry are separate records, joined by “and”; a condition that tells them apart may be missing. Equal entries are not always repeated.
Legend:
[1] = system: C57BL/6 ES cell lines (Apcmin mutant or Rosa(lacZ) knock-in); test: Production of genetically engineered and mutant inbred ES mice by tetraploid blastocyst injection; format: in vivo, mouse; set-up: respirating pups efficiency: concentration or dose not given beside the values
Description: (§1) Production of mice by tetraploid embryo complementation has been previously described (Eggan et al. (2001) PNAS 98:6209-6214). Briefly, embryo culture was carried out in microdrops on standard bacterial petri dishes (Falcon) under mineral oil (Sigma). Modified CZB media (Chatot et al, Supra) was used for embryo culture unless otherwise noted. Hepes buffered CZB was used for room temperature operations. After administration of hormones, superovulated B6D2F1 females were mated with B6D2F1 males. Fertilized zygotes were isolated from the oviduct and any remaining cumulus cells were removed with hyluronidase. After overnight culture, two-cell embryos were electrofused to produce one cell tetraploid embryos using a CF150-B cell fusion instrument from BLS (Budapest, Hungary) according to the manufacturers instructions. Embryos that had not undergone membrane fusion within 1 hour were discarded. Embryos were then cultured in vitro to the blastocyst stage. For microinjection, 5-6 blastocysts were placed in a drop of DMEM with 15% FCS under mineral oil. A flat tip, piezo actuated microinjection-pipette with an internal diameter of 12-15 μm was used to inject 15 ES cells into each blastocyst. After recovery, ten injected blastocysts were transferred to each uterine horn of 2.5 days post coitum, pseudopregnant NMRI females that had been mated with vasectomized males. For cesarian derivation, recipient mothers were sacrificed at E 19.5 and pups were quickly removed. Newborns that were alive and respirating were cross-fostered to lactating females. Three days later, the litters were controlled, and pups alive by that time were counted as surviving pups.
In order to generate inbred ES mice which harbour genetic alterations we pursued two different strategies. In the first protocol ES cell lines that were established and grown in media with UO 126 (see Example I) and which harbour the C57BL/6-APCMin mutation were injected into tetraploid blastocysts. […] In the second protocol the C57BL/6 ES cell line ESAR-B6-PD.4 was genetically modified in a predetermined manner through homologous recombination using a gene targeting vector. This vector (Rosa(lacZ) knock-in) introduces a beta-galactosidase reporter gene in conjunction with a selectable hygromycin resistance gene into the endogenous Rosa26 locus of the ES cell genome (Seibler et al., Nucleic Acids Res. 31, e12, 2003). This gene targeting vector was electroporated into ESAR-B6-PD4 cells exactly as described (Seibler et al., Nucleic Acids Res. 31, e12, 2003) and hygromycin resistant ES cell colonies were selected, isolated and further expanded. The genomic DNA of resistant colonies was isolated and tested by Southern blot analysis for the occurrence of a homologous recombination event in one of the Rosa26 alleles. Cells from one of the recombined ES cell clones (ESAR-B6-PD.4-R9 A-F2) was injected into tetraploid blastocysts.

C57BL/6 blastocysts = test: Derivation of ES cell lines from C57BL/6 blastocysts in medium with MEK inhibitor; format: cell-based, mouse; conditions: for Efficiency to derive ES lines / Number of established ES lines: C57BL/6, PD98059 50 then 25 micromolar, 18 blastocysts, UO126 10 then 4 micromolar, 40 blastocysts, 39° C; for higher efficiency of ES cell line derivation in the presence of the MEK inhibitor versus standard conditions: compared with standard conditions (Table 1)
Description: ES cell derivation was essentially performed as described by Hogan et al. (Manipulating the mouse embryo, CSHL Press 1994, pp253-89), except that cell culture was performed at 39° C. instead of 37° C. C57BL/6 (Janvier, France), 129SvEv/Tac (Taconic M&B, Denmark) or C57BL/6-APCMin (Jackson Laboratories, USA) male and female mice were mated to obtain blastocysts from fertilized females. The C57BL/6-APCMin mouse strain harbours a spontaneous mutation in the APC tumor suppressor gene (Su L K et al (1992) Science 256:668-670) and provides a genetic model for human hereditary colon cancer. Plug positive females were set aside, and 3 days later blastocysts were isolated by flushing their uteri. The blastocysts were further cultured overnight in CZB medium (Chatot et al. (1990) Biol. Reprod. 42:432-440) and then transferred into 12-well tissue culture plates (1 blastocyst per well), precoated with a monolayer of Mitomycin-C inactivated primary mouse embryonic fibroblasts, in standard ES cell culture medium (“standard conditions”) (Torres and Kuehn, Laboratory protocols for conditional gene targeting, Oxford University Press 1997), or in standard medium supplemented with the MEK inhibitor PD 98059 (NEB Biolabs) (50 micromolar concentration, diluted from a 50 millimolar stock in DMSO stored at −20° C.) or with the MEK inhibitor UO126 (10 micromolar concentration; NEB Biolabs). These cultures were incubated in a tissue culture incubator (Heraeus) for 6 days at 39° C. in a 10% CO2 atmosphere. The outgrown inner cell mass of each blastocyst was isolated with a pipette tip under low power magnification, transferred into a 50 microliter drop of Trypsin solution and incubated at 39° C. for 5-10 minutes. This cell clump was further dissociated by pipetting, the cells were transferred into tissue culture dishes and further propagated at 39° C. using standard ES cell culture conditions (Torres and Kuehn 1997, supra), with and without PD98059 (50 micromolar) or UO126 (10 micromolar). After the initial establishment of ES cell lines propagated in the presence of PD98059 (6 days after the first dissociation) the concentration of PD98059 was reduced to 25 micromolar, the concentration of UO 126 was reduced to 4 micromolar, and the cells were further propagated. The C57BL/6 line Bruce4 (Kontgen et al, (1993) Int Immunol. 5:957-964) was grown under standard conditions at 37° C.
(§2) The sex of the cell lines was determined through Southern blot hybridisation of genomic DNA using a detection probe (pY353) specific to a Y-chromosome specific repeat (Bishop C E and Hatat D. (1987) Nucleic Acids Res 15, 2959-2969).
For the karyotype analysis of ES cell clones, 4×10^6 cells were cultured for 1 hour in the presence of 0.2 μg/ml Demicolchicin (Sigma), trypsinised, resuspended in a hypotonic (0.56%) KCl solution and incubated for 8 minutes at room temperature. The swollen cells were sedimented by centrifugation, resuspended in freshly prepared fixative (3:1 mixture of ethanol/glacial acetic acid) and subsequently washed 2 times in fixative. Finally, the cells were resuspended in 0.5 ml fixative and dropped on glass slides precleaned with ethanol/acetic acid (19/1). After air drying, the metaphase spreads were stained for 5 minutes in a 2% solution of Giemsa's stain (Merck), washed in water, and air-dried. The chromosome numbers of 20 suitable metaphase spreads were counted at 1000× magnification under oil immersion.

[2] = system: C57BL/6-APCMin blastocysts; conditions: UO126 10 then 4 micromolar, 33 blastocysts, 39° C
Description: ES cell derivation was essentially performed as described by Hogan et al. (Manipulating the mouse embryo, CSHL Press 1994, pp253-89), except that cell culture was performed at 39° C. instead of 37° C. C57BL/6 (Janvier, France), 129SvEv/Tac (Taconic M&B, Denmark) or C57BL/6-APCMin (Jackson Laboratories, USA) male and female mice were mated to obtain blastocysts from fertilized females. The C57BL/6-APCMin mouse strain harbours a spontaneous mutation in the APC tumor suppressor gene (Su L K et al (1992) Science 256:668-670) and provides a genetic model for human hereditary colon cancer. Plug positive females were set aside, and 3 days later blastocysts were isolated by flushing their uteri. […]
as §2
(§3) For the karyotype analysis of ES cell clones, 4×10^6 cells were cultured for 1 hour in the presence of 0.2 μg/ml Demicolchicin (Sigma), trypsinised, resuspended in a hypotonic (0.56%) KCl solution and incubated for 8 minutes at room temperature. […] The chromosome numbers of 20 suitable metaphase spreads were counted at 1000× magnification under oil immersion.

C57BL/6 ES cell lines = test: ES mouse production by injection of C57BL/6 inbred ES cells into tetraploid blastocysts; format: in vivo; conditions: for Number of respirating pups / respirating pups efficiency: E 19.5; for Number of surviving pups / surviving pups efficiency: alive three days later
Description: as §1

[3] = system: 129 ES cell lines (129S6/SvEvTac); test: ES mouse production by injection of 129 inbred ES cells into tetraploid blastocysts; format: in vivo; conditions: ES line ESAR-S6-PD.4 (129S6/SvEvTac) grown with PD98059, 335 injected tetraploid blastocysts
Description: as §1

[4] = system: undifferentiated ES cells; conditions: added to the culture medium; Burdon et al. (1999), WO 0015764; cited from earlier work
129SvEv/Tac blastocysts = test: Derivation of ES cell lines from 129SvEv/Tac blastocysts in medium with MEK inhibitor; format: cell-based, mouse; conditions: PD98059 50 then 25 micromolar, 12 blastocysts, 39° C
Description: ES cell derivation was essentially performed as described by Hogan et al. (Manipulating the mouse embryo, CSHL Press 1994, pp253-89), except that cell culture was performed at 39° C. instead of 37° C. C57BL/6 (Janvier, France), 129SvEv/Tac (Taconic M&B, Denmark) or C57BL/6-APCMin (Jackson Laboratories, USA) male and female mice were mated to obtain blastocysts from fertilized females. The C57BL/6-APCMin mouse strain harbours a spontaneous mutation in the APC tumor suppressor gene (Su L K et al (1992) Science 256:668-670) and provides a genetic model for human hereditary colon cancer. Plug positive females were set aside, and 3 days later blastocysts were isolated by flushing their uteri. The blastocysts were further cultured overnight in CZB medium (Chatot et al. (1990) Biol. Reprod. 42:432-440) and then transferred into 12-well tissue culture plates (1 blastocyst per well), precoated with a monolayer of Mitomycin-C inactivated primary mouse embryonic fibroblasts, in standard ES cell culture medium (“standard conditions”) (Torres and Kuehn, Laboratory protocols for conditional gene targeting, Oxford University Press 1997), or in standard medium supplemented with the MEK inhibitor PD 98059 (NEB Biolabs) (50 micromolar concentration, diluted from a 50 millimolar stock in DMSO stored at −20° C.) or with the MEK inhibitor UO126 (10 micromolar concentration; NEB Biolabs). These cultures were incubated in a tissue culture incubator (Heraeus) for 6 days at 39° C. in a 10% CO2 atmosphere. […]
as §2, §3

[5] = ES line ESAR-APC 3 UO (C57BL/6 J Apcmin) grown with UO126, 405 injected tetraploid blastocysts
[6] = ES line ESAR-APC 9 UO (C57BL/6 J Apcmin) grown with UO126, 228 injected tetraploid blastocysts
[7] = Sum of two C57BL/6 J Apcmin ES lines grown with UO126, 633 injected tetraploid blastocysts
[8] = Rosa(lacZ) knock-in ES clone ESAR-B6-PD.4 R9 B-G12 (C57BL/6 J) with PD98059, 162 injected tetraploid blastocysts
[9] = ES line ESAR-B6-PD.13 (C57BL/6J) grown with PD98059, 180 injected tetraploid blastocysts
[10] = ES line ESAR-B6-PD.3 (C57BL/6J) grown with PD98059, 372 injected tetraploid blastocysts
[11] = ES line ESAR-B6-PD.4 (C57BL/6J) grown with PD98059, 329 injected tetraploid blastocysts
[12] = Sum of three C57BL/6 ES lines grown with PD98059, 881 injected tetraploid blastocysts

## N#CC(=C(/N)Sc1ccccc1N)/C(C#N)=C(/N)Sc1ccccc1N [UO126, bis[amino[(2-aminophenyl)thio]methylene]butanedinitrile]
[1]; [5]
  Number of respirating pups: 11
  respirating pups efficiency: 2.72%
[1]; [6]
  Number of respirating pups: 1
  respirating pups efficiency: 0.44%
[1]; [7]
  Number of respirating pups: 12
  respirating pups efficiency: 1.90%
[1]; Sum of two C57BL/6 J Apcmin ES lines grown with UO126, 633 injected tetraploid blastocysts, listed as UO 126
  respirating pups efficiency: 1.9%
C57BL/6 blastocysts
  Efficiency to derive ES lines: 80%
  Number of established ES lines: 32
  higher efficiency of ES cell line derivation in the presence of the MEK inhibitor versus standard conditions: 5 fold
C57BL/6 blastocysts; listed as UO 126
  Efficiency to derive ES lines: 80%
[2]
  Efficiency to derive ES lines: 36%
  Number of established ES lines: 12

## COc1cccc(-c2cc(=O)c3ccccc3o2)c1N [PD98059, 2′-amino-3′-methoxyflavone]
[1]; [8]
  Number of respirating pups: 4
  respirating pups efficiency: 2.47%
C57BL/6 blastocysts
  Efficiency to derive ES lines: 61%
  Number of established ES lines: 11
  higher efficiency of ES cell line derivation in the presence of the MEK inhibitor versus standard conditions: 5 fold
C57BL/6 blastocysts; listed as PD 98059
  Efficiency to derive ES lines: 61%
C57BL/6 ES cell lines; [9]
  Number of respirating pups: 4
  respirating pups efficiency: 2.22%
  Number of surviving pups: 0
  surviving pups efficiency: 0.00%
C57BL/6 ES cell lines; [10]
  Number of respirating pups: 8
  respirating pups efficiency: 2.15%
  Number of surviving pups: 1
  surviving pups efficiency: 0.27%
C57BL/6 ES cell lines; [11]
  Number of respirating pups: 11
  respirating pups efficiency: 3.34%
  Number of surviving pups: 4
  surviving pups efficiency: 1.22%
C57BL/6 ES cell lines; [12]
  Number of respirating pups: 23
  respirating pups efficiency: 2.6% and 2.61%
  Number of surviving pups: 5
  surviving pups efficiency: 0.57%
[3]; E 19.5
  Number of respirating pups: 29
  respirating pups efficiency: 8.66%
[3]; alive three days later
  Number of surviving pups: 15
  surviving pups efficiency: 4.48%
[4]
  effect on growth of undifferentiated ES cells: enhances the growth of undifferentiated ES cells
129SvEv/Tac blastocysts
  Efficiency to derive ES lines: 75%
  Number of established ES lines: 9
129SvEv/Tac blastocysts; listed as PD 98059
  Efficiency to derive ES lines: 75%

Source: patent publication US20030204862A1, “Inbred embryonic stem-cell derived mice” (priority 2002, published 2003)
